Source: patent US11878049B1, “Mitapivat therapy and modulators of cytochrome P450” (Agios Pharmaceuticals, Inc., priority 2019, dated 2024)
Structures can show the parent of a compound that is named as a salt.

Key:
Type in all cases: in vitro ADME
[1] = target: uridine-5′-diphospho-glucuronosyltransferase (UGT) 1A4 (Homo sapiens, UniProt P22310); test: UGT inhibition
CYP2D6 = CYP2D6 (Homo sapiens, UniProt P10635); test: CYP enzyme inhibition
OAT1 = OAT1 (Homo sapiens, UniProt Q4U2R8); test: Transporter inhibition
CYP2C8 = CYP2C8 (Homo sapiens, UniProt P10632); test: CYP enzyme inhibition
[2] = target: organic anion transporting polypeptide (OATP)1B1 (Homo sapiens, UniProt Q9Y6L6); test: Transporter inhibition
[3] = target: organic anion transporter (OAT)3 (Homo sapiens, UniProt Q8TCC7); test: Transporter inhibition
organic anion transporter (OAT)3, sequence (Q8TCC7 whole entry): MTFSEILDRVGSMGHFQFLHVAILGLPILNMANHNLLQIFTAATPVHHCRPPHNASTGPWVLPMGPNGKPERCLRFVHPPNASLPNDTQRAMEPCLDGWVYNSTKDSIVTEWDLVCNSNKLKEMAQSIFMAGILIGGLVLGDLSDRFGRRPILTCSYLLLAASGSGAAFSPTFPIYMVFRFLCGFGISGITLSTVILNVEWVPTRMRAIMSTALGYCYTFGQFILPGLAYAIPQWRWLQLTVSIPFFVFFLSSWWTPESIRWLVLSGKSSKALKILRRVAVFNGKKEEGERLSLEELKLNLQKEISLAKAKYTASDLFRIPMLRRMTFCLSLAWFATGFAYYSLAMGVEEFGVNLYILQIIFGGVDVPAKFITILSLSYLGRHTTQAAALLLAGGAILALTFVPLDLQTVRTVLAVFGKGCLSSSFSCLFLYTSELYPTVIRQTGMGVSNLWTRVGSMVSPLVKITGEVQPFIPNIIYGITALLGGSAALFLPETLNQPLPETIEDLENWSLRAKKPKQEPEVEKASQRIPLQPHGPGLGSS

[4] = target: T1, breast cancer resistance protein (BCRP) (Homo sapiens, UniProt Q9UNQ0); test: Transporter substrate assessment
T1 sequence (Q9UNQ0 1-655): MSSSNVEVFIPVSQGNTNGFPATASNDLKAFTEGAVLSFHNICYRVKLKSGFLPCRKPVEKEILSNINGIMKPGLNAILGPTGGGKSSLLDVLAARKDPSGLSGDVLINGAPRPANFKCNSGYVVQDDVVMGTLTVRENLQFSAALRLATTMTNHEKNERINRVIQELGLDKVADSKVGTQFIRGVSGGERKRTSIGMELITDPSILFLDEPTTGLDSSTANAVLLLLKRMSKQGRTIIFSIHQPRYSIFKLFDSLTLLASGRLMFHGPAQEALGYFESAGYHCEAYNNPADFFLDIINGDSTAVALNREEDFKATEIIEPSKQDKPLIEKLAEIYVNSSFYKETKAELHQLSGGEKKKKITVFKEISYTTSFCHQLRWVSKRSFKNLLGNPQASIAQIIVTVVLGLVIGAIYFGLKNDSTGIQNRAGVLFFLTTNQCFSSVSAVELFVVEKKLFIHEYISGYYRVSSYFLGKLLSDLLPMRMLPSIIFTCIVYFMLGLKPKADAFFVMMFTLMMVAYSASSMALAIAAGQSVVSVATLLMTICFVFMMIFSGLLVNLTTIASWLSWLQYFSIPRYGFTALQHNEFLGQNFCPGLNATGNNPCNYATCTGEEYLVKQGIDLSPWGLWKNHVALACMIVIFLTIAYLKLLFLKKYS

[5] = target: bile salts export pump (BSEP) (Homo sapiens, UniProt O95342); test: Transporter inhibition
bile salts export pump (BSEP), sequence (O95342 whole entry): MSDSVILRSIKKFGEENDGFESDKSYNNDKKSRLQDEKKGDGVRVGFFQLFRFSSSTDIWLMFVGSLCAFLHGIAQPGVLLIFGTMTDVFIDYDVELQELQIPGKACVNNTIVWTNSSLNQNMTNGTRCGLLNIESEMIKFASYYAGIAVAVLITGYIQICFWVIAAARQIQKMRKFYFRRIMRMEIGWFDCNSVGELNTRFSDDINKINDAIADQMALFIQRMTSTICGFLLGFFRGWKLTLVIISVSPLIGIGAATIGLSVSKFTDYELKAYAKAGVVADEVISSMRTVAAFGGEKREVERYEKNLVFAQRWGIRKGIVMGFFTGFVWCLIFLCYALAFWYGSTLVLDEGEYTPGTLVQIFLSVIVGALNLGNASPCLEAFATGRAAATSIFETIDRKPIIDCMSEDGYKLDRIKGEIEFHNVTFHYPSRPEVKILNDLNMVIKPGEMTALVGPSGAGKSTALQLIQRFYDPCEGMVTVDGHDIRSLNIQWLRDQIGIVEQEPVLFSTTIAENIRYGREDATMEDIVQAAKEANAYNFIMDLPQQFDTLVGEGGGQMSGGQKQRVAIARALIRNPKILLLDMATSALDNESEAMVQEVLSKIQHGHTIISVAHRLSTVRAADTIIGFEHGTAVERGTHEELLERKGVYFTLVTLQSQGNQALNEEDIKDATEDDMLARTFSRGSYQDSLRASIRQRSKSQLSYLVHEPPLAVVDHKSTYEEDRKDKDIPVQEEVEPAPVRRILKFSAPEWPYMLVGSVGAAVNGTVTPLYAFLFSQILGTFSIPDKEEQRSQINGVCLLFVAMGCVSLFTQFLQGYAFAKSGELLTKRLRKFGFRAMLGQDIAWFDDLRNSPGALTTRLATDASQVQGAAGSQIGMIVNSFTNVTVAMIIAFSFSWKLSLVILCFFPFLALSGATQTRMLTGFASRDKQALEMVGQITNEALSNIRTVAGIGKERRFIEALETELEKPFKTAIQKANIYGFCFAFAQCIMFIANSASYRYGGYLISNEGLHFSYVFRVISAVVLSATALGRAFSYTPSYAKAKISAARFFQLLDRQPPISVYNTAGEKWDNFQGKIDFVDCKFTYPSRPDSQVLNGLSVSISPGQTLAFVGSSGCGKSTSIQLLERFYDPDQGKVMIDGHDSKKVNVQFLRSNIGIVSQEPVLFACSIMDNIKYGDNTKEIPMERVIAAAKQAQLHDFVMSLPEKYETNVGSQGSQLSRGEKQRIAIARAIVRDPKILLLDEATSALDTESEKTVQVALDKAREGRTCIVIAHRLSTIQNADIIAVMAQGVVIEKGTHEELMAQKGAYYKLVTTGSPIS

[6] = target: uridine-5′-diphospho-glucuronosyltransferase (UGT) 1A3 (Homo sapiens, UniProt P35503); test: UGT inhibition
[7] = target: multidrug resistance-associated protein (MRP)2 (Homo sapiens, UniProt Q92887); test: Transporter inhibition
CYP2C9 = CYP2C9 (Homo sapiens, UniProt P11712); test: CYP enzyme inhibition
P-gp [8] = target: T2, P-gp (Homo sapiens, UniProt P08183); test: Transporter inhibition
T2 sequence (P08183 whole entry): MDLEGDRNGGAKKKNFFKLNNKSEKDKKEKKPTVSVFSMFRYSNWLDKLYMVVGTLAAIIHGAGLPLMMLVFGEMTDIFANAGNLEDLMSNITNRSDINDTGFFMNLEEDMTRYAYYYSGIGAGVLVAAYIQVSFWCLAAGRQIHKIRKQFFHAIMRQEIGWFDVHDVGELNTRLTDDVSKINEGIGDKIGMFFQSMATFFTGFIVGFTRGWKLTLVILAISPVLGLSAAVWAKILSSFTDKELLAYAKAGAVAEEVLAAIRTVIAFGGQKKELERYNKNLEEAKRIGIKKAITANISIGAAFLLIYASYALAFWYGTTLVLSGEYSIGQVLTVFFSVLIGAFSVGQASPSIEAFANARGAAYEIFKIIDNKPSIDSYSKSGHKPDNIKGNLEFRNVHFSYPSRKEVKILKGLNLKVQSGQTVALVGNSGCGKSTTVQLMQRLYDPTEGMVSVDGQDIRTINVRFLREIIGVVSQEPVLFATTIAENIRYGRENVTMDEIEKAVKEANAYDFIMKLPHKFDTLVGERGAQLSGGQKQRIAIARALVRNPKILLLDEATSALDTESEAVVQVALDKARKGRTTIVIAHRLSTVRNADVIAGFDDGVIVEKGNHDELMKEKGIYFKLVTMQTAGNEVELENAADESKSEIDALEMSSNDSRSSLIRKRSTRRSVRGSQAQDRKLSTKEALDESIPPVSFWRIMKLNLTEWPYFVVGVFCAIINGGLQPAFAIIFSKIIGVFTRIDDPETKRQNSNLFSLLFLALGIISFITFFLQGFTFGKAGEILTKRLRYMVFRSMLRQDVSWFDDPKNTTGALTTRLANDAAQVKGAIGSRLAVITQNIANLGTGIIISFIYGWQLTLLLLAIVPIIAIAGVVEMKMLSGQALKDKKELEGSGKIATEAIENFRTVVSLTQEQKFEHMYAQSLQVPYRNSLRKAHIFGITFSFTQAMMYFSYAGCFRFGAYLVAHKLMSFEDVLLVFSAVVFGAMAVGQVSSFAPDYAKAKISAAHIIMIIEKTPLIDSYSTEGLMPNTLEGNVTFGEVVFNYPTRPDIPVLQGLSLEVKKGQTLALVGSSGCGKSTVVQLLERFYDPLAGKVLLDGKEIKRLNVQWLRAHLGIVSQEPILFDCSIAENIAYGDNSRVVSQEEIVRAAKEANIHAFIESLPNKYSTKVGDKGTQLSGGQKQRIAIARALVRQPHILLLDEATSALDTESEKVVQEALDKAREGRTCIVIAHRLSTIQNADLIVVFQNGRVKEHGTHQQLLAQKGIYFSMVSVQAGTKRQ

OATP1B3 = OATP1B3 (Homo sapiens, UniProt Q9NPD5); test: Transporter inhibition
[9] = target: organic cation transporter (OCT)2 (Homo sapiens, UniProt O15244); test: Transporter inhibition
organic cation transporter (OCT)2, sequence (O15244 whole entry): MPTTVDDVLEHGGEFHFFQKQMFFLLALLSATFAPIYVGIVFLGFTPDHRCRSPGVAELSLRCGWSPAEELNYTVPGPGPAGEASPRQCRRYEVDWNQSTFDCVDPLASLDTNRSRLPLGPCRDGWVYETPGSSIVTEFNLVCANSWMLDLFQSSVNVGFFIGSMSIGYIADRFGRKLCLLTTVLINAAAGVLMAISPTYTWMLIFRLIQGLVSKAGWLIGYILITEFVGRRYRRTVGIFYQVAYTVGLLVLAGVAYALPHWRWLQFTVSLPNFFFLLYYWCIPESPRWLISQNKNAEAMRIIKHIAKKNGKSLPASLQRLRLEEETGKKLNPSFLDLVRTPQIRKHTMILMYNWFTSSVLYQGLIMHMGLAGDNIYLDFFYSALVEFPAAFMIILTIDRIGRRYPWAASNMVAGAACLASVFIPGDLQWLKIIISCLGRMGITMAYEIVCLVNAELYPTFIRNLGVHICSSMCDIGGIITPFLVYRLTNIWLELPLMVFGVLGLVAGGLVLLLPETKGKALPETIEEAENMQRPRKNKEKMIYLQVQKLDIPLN

human CYP3A4 = test: CYP induction
human CYP2B6 = test: CYP induction
MRP3 = MRP3 (Homo sapiens, UniProt O15438); test: Transporter inhibition
CYP2C19 [10] = target: T3, CYP2C19 (Homo sapiens, UniProt P33261); test: CYP enzyme inhibition
T3 sequence (P33261 whole entry): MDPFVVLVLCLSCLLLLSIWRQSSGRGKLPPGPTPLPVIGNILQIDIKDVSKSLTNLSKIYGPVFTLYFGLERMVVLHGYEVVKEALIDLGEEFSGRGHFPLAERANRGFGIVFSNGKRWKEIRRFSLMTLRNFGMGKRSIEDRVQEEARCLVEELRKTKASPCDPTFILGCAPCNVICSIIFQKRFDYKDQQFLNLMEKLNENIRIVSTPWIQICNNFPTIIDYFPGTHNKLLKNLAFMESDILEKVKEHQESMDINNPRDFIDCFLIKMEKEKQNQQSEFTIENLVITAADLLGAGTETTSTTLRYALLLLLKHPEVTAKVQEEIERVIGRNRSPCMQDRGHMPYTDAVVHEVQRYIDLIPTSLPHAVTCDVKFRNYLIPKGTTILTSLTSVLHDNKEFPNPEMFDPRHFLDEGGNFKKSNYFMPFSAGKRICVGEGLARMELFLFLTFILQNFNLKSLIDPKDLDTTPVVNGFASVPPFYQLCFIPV

P-gp [11] = target: T2, P-gp; test: Transporter substrate assessment
[12] = target: uridine-5′-diphospho-glucuronosyltransferase (UGT) 1A9 (Homo sapiens, UniProt O60656); test: UGT inhibition
CYP3A4 = CYP3A4 (Homo sapiens, UniProt P08684); test: Metabolism-dependent CYP inhibition
CYP3A4, sequence (P08684 whole entry): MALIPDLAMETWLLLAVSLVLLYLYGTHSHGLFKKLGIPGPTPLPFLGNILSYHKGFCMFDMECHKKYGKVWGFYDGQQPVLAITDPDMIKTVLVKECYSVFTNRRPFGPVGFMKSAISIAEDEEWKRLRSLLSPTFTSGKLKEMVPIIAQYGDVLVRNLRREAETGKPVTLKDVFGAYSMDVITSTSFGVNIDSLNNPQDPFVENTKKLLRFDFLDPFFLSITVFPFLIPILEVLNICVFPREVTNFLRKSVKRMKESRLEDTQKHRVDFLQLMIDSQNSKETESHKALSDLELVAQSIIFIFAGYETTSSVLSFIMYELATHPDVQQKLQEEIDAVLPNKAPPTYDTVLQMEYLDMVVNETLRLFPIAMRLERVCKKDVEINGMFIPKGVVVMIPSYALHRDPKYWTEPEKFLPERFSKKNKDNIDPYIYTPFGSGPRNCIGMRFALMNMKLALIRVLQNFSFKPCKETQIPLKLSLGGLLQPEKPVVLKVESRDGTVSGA

CYP2C19 [13] = target: T3, CYP2C19; test: Metabolism-dependent CYP inhibition
[14] = target: T1, breast cancer resistance protein (BCRP); test: Transporter inhibition
CYP3A4/5 = test: CYP enzyme inhibition (testosterone 6β-hydroxylation)

O=C(c1ccc(NS(=O)(=O)c2cccc3cccnc23)cc1)N1CCN(CC2CC2)CC1 [Mitapivat sulfate]
Inhibition of UGT1A4 [1]: mild inhibitor
Inhibition of CYP2D6 (CYP2D6): mild inhibitor
Inhibition of OAT1 (OAT1): does not appear to be an inhibitor
Inhibition of CYP2C8 (CYP2C8): mild inhibitor
Inhibition of OATP1B1 [2]: mild inhibitor
Inhibition of OAT3 [3]: mild inhibitor
Substrate for BCRP [4]: not for breast cancer resistance protein (BCRP)
Inhibition of BSEP [5]: mild inhibitor
Inhibition of UGT1A3 [6]: mild inhibitor
Inhibition of MRP2 [7]: does not appear to be an inhibitor
Inhibition of CYP2C9 (CYP2C9): mild inhibitor
Inhibitor for P-gp (P-gp [8]): inhibitor
Inhibition of OATP1B3 (OATP1B3): does not appear to be an inhibitor
Inhibition of OCT2 [9]: mild inhibitor
Induction of human CYP3A4 (human CYP3A4): potential inducer
Induction of human CYP2B6 (human CYP2B6): potential inducer
Inhibition of MRP3 (MRP3): does not appear to be an inhibitor
Inhibition of CYP2C19 (CYP2C19 [10]): mild inhibitor
Substrate for P-gp (P-gp [11]): substrate
Inhibition of UGT1A9 [12]: mild inhibitor
Metabolism-dependent inhibition of CYP3A4 (evidence found), reversibility (CYP3A4): largely irreversible
Metabolism-dependent inhibition of CYP2C19 (evidence found), reversibility (CYP2C19 [13]): largely reversible
Inhibitor for BCRP [14]: not for breast cancer resistance protein (BCRP)
Inhibition of CYP3A4/5 (CYP3A4/5): mild inhibitor
